Experimental data: patent US8293481B2, “Biomarkers for chronic vascular dysfunction” (Mayo Foundation for Medical Education and Research, priority 2006, dated 2012)

Legend:
Assay in all cases: Affymetrix microarray gene expression in aorta post-infarction
Assay type in all cases: in vivo, rat
[1] = test system: CCAAT/enhancer binding protein (C/EBP) gamma (Cebpg); settings: 4 weeks post-infarction, higher with surgery
Text: (§1) After intubation, rats were ventilated continuously (room air) using a small animal ventilator (Model 683, Harvard Apparatus, Holliston, Mass.). A left lateral thoracotomy incision was made along the 5th intercostal space and after the pericardium was opened, the heart was exteriorized using a retention suture placed at the apex. The left anterior descending coronary artery (LAD) was ligated twice using 6-0 prolene suture (Ethicon, Cornelia, Ga.). After chest closure with running 3-0 vicryl suture (Ethicon), rats were put in a recovery chamber with a heating pad and warming light. The post-operative survival rate reached 80%. […] Rats were fed a standard diet of Teklad rodent feed (Harlan) ad libitum and kept on a 12:12 h light-dark cycle. Rats were sacrificed at designated time intervals of 2 weeks and 4 weeks after surgery. […] Isolation of total RNA: […] Surrounding peri-adventitial tissues, fat, and endothelium were then carefully cleaned away and removed. The remaining vascular smooth muscle was then frozen with liquid nitrogen, pulverized into fine powder, and resuspended in 600 μl of Buffer RLT with β-ME (10 μl β-ME: 1 ml Buffer RLT, Qiagen, Valencia, Calif.). The lysate was pipetted directly onto a QIAshredder spin column (Qiagen) placed in a 2 ml collection tube and centrifuged for 5 minutes at 14000 rpm, 4° C. The supernatant was transferred to a new microcentrifuge tube and 1 volume of 70% ethanol was added and mixed. The cleared lysate was then transferred to an RNeasy mini-column (Qiagen) placed in a 2 ml collection tube and spun for 15 seconds at ≧10,000 rpm, 4° C. The flow-through was discarded and 700 μl of Buffer RW1 (Qiagen) was added to the RNeasy column. After the column was spun for 15 seconds at ≧10,000 rpm (4° C.), it was transferred into a new 2 ml collection tube, washed, spun twice with 500 μl Buffer RPE (Qiagen), and eluted with 40 μl of RNase-free water using a microcentrifuge (≧10,000 rpm, 4° C.) for 1 minute. Final RNA samples were stored at −20° C. to prevent degradation. Determination of gene expression using Affymetrix microarrays: Gene expression analysis was conducted using a GeneChip Rat Genome 230 2.0 Array (Affymetrix, West Sacramento, Calif.), with sequences selected from the GENBANK® (World Wide Web at ncbi.nlm.nih.gov) database for expressed sequence tags (dbEST), and Reference Sequence (RefSeq) (Benson et al. (2007) Nucleic Acids Res. 35:D21-25; and Boguski et al. (1993) Nat. Genet. 4:332-333). These sequence clusters were created from the UniGene database (Wheeler et al. (2003) Nucleic Acids Res. 31:28-33; Build 99, June 2002, World Wide Web at ncbi.nlm.nih.gov) and then refined by analysis and comparison with the publicly available draft assembly of the rat genome from the Baylor College of Medicine Human Genome Sequencing Center (Gibbs et al. (2004) Nature 428:493-521). […] GENECHIP® Scanner 3000 and GENECHIP® Operating Software (GCOS) v1.1.1 (Affymetrix, West Sacramento, Calif.), enabled for high-resolution scanning, was used for the final microarray analysis. Differentially expressed genes are listed according to their GeneID number in the National Center for Biotechnology Information (NCBI) database. To ensure accurate analysis, a minimum of 3 ng of good quality total RNA at a concentration of ≧500 pg/μl was required. RNA (1 ng) was tested for its quality using an Agilent 2100 bioanalyzer (Agilent Technologies). A RNA Integrity Number (RIN) was assigned to each sample, and RIN ≧6 was considered satisfactory for proceeding with the microarray analysis. Statistics: The Affymetrix array was used to determine gene expression at 2 weeks and 4 weeks. Uninfarcted control aorta was then compared with both captopril and placebo treated aorta. Similarly, uninfarcted control portal vein was compared with both captopril and placebo treated portal vein. […]

[2] = test system: Sel (suppressor of lin-12) 1 homolog 1h. (Sel1h); settings: 2 weeks, infarcted rats with or without captopril
Text: as §1

[3] = test system: TAO kinase 1 (Taok1); settings: 2 weeks, infarcted rats with or without captopril
Text: as §1

[4] = test system: acyl-CoA thioesterase (ACOT8); settings: 2 weeks, infarcted rats with or without captopril
Text: as §1

[5] = test system: afadin (Af6); settings: 2 weeks, infarcted rats with or without captopril
Text: as §1

[6] = test system: chemokine (C-X-C motif) ligand 12 (Cxcl12); settings: 4 weeks, surgery group without treatment less than baseline control
Text: as §1

[7] = test system: cytochrome c oxidase subunit Va (Cox5a); settings: 4 weeks post-infarction, higher with surgery
Text: as §1

[8] = test system: glutaminase 2 (Gls2); settings: 4 weeks, highest in the infarct group without therapy
Text: as §1

[9] = test system: glycerophosphodiester phosphodiesterase (MIR16); settings: 2 weeks, infarcted rats with or without captopril
Text: as §1

[10] = test system: regulated endocrine-specific protein 18 (Resp18); settings: 4 weeks post-infarction, higher with surgery
Text: as §1

[11] = test system: trafficking protein particle complex 1 (Trappc1); settings: 4 weeks post-infarction, higher with surgery
Text: as §1

[12] = test system: trimethyllysine hydroxylase epsilon (Tmlhe); settings: 4 weeks, surgery group without treatment less than baseline control
Text: as §1

C[C@H](CS)C(=O)N1CCC[C@H]1C(=O)O [Captopril, 1-[(2S)-3-mercapto-2-methylpropionyl]-L-proline]
lowest: Gls2 expression in the aorta, captopril treated group among the groups [8]
increased expression: Cxcl12 expression in the aorta with captopril [6] | Tmlhe expression in the aorta with captopril [12]
higher: Sel1h aortic expression level versus control rats without surgery [2] | Taok1 aortic expression level versus control rats without surgery [3] | ACOT8 aortic expression level versus control rats without surgery [4] | Af6 aortic expression level versus control rats without surgery [5] | MIR16 aortic expression level versus control rats without surgery [9]
further increase in expression: Cebpg expression in the aorta with captopril therapy versus surgery alone [1] | Cox5a expression in the aorta with captopril therapy versus surgery alone [7] | Resp18 expression in the aorta with captopril therapy versus surgery alone [10] | Trappc1 expression in the aorta with captopril therapy versus surgery alone [11]
